Test results taken from PMC5740067 (Scientific Reports, 2017).
Entries after “also recorded” stand apart in the source; their conditions may differ. Read-outs that look alike come from different tables or passages of the source.

Experiments:
OccJ WT [1] = biological target: T1, OccJ WT (Agrobacterium tumefaciens, UniProt P0A4F8); assay: biochemical; type: binding
T1 construct: The mature PBP OccJ (256 aa without the signal peptide) expression plasmid was obtained by cloning the occJ gene lacking the first twenty residues; hexahistidine (C); made in house; host or cells: E. coli BL21
T1 sequence (P0A4F8 21-276): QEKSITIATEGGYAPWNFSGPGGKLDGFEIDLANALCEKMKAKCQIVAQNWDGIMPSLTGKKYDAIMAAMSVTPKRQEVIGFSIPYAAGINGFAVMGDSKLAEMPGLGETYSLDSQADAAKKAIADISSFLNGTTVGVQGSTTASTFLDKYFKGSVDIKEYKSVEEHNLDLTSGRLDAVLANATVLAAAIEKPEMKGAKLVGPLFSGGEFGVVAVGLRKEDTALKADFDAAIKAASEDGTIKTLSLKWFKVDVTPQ
Protocol: (§1) Binding of ligands to OccJ, NocT, LAO and protein mutants was monitored by autofluorescence by exciting the protein at a wavelength of 295 nm and monitoring the quenching of fluorescence emission of tryptophans at 335 nm. All experiments were performed at 20 °C in 96 wells plates (1/2 Area Plate-96F, Perkin Elmer) using Tecan Infinite M1000 reader (Tecan), in 50 mM Tris-HCl pH 8.0, 150 mM NaCl buffer with a fixed amount of proteins (1 µM) and increasing concentrations of ligand. […] The data were analysed using Origin® 7 software and fitted to the equation f = ΔFluorescencemax * abs(x)/(K D + abs(x)).

OccJ S91G [2] = biological target: T2, OccJ S91G (Agrobacterium tumefaciens, UniProt P0A4F8, S91G); assay: OccJ S91G ligand binding, fluorescence titration; conditions: intrinsic protein fluorescence titration
T2 construct: The mature LAO expression plasmid, LAO-Q122A, OccJ-S91G and OccJ-N202D were chemically synthesized; pET-28a); host or cells: E. coli BL21
T2 sequence (P0A4F8 21-276 S91G): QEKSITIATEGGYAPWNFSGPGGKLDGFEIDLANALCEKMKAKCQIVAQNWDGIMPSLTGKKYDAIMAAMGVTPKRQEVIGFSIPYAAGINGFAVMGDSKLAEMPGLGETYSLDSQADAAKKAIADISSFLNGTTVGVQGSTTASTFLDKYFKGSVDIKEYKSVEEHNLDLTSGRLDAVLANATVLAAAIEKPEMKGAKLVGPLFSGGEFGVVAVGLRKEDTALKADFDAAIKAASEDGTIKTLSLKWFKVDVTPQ
Protocol: as §1

NocT G97S [3] = biological target: T3, NocT G97S (Agrobacterium fabrum, UniProt P35120, G97S); type: binding, Agrobacterium tumefaciens; conditions: intrinsic protein fluorescence titration, 20 °C, pH 8.0
T3 construct: Cloning of mature OccJ, NocT-G97S, OccJ-S91G, OccJ-N202D, LAO and LAO-Q122A; made in house; host or cells: E. coli BL21
T3 sequence (P35120 26-283 G97S): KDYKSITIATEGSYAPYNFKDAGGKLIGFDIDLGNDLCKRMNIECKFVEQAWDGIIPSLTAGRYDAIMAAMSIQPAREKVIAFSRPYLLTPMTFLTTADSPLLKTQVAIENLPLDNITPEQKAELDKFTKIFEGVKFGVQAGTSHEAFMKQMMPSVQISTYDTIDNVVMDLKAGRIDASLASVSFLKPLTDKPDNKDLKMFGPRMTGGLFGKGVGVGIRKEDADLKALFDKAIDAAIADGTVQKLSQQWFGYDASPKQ

NocT WT [4] = biological target: T4, NocT WT (Agrobacterium fabrum, UniProt P35120); conditions: fluorescence titration; octopine and nopaline; ref [6],[14]; read-out: K D (F); cited from earlier work
T4 construct: Cloning of mature OccJ, NocT-G97S, OccJ-S91G, OccJ-N202D, LAO and LAO-Q122A; made in house
T4 sequence (P35120 26-283): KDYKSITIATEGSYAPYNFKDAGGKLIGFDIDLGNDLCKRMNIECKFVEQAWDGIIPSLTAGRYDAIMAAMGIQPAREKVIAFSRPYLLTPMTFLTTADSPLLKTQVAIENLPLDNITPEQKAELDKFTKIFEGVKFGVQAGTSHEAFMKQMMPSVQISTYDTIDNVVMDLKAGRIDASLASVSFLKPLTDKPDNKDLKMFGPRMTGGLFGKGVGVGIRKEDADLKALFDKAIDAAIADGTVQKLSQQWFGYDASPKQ

OccJ WT [5] = biological target: T1, OccJ WT; assay: OccJ WT ligand binding, isothermal titration microcalorimetry; conditions: ITC, 20 °C
Protocol: (§2) Isothermal titration microcalorimetry experiments were performed with an ITC200 isothermal titration calorimeter from MicroCal (GE Healthcare). The experiments were carried out at 20 °C. Protein concentration in the microcalorimeter cell (0.2 mL) varied from 20 to 150 µM. Nineteen injections of 2 µL of ligand solution (amino acids, opines and octopine derivatives) at concentration ranging from 240 µM to 1.5 mM were performed at intervals of 180 s while stirring at 500 rpm. The experimental data were fitted to theoretical titration curves with software supplied by MicroCal (ORIGIN®). This software uses the relationship between the heat generated by each injection and ΔH (enthalpy change in kcal/mol), Ka (the association binding constant in M^−1), n (the number of binding sites), total protein concentration and free and total ligand concentrations.

NocT WT [6] = biological target: T4, NocT WT; type: binding, Agrobacterium tumefaciens; conditions: fluorescence titration; 20 °C; pH 8.0; octopine family members and analogues; read-out: Kd (F)
Protocol: as §1

NocT WT [7] = biological target: T4, NocT WT; type: binding, Agrobacterium tumefaciens; conditions: ITC, 20 °C
Protocol: as §2

OccJ N202D [8] = biological target: T5, OccJ N202D (Agrobacterium tumefaciens, UniProt P0A4F8, N202D); type: binding; conditions: ITC, 20 °C
T5 construct: The mature LAO expression plasmid, LAO-Q122A, OccJ-S91G and OccJ-N202D were chemically synthesized; pET-28a); host or cells: E. coli BL21
T5 sequence (P0A4F8 21-276 N202D): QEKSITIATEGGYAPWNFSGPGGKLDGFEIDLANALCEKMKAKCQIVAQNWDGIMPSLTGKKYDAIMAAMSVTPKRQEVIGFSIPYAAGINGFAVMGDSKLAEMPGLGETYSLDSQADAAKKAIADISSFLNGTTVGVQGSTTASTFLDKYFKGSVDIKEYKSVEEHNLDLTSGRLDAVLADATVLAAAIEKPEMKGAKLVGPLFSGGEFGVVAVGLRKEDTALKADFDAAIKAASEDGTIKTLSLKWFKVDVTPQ
Protocol: as §2

OccJ S91G [9] = biological target: T2, OccJ S91G; type: binding; conditions: ITC, 20 °C
Protocol: as §2

OccJ N202D [10] = biological target: T5, OccJ N202D; type: binding; conditions: intrinsic protein fluorescence titration; 20 °C; pH 8.0; read-out: K D (F)
NocT G97S [11] = type: binding, Agrobacterium tumefaciens
NocT G97S [12] = biological target: T3, NocT G97S; type: binding, Agrobacterium tumefaciens; conditions: ITC, 20 °C
Protocol: as §2

LAO WT = biological target: T6, LAO WT (Salmonella typhimurium, UniProt P02911); assay: biochemical; type: binding, Salmonella enterica; conditions: ITC, 20 °C
T6 construct: The mature LAO expression plasmid, LAO-Q122A, OccJ-S91G and OccJ-N202D were chemically synthesized; pET-28a); host or cells: E. coli BL21
T6 sequence (P02911 23-260): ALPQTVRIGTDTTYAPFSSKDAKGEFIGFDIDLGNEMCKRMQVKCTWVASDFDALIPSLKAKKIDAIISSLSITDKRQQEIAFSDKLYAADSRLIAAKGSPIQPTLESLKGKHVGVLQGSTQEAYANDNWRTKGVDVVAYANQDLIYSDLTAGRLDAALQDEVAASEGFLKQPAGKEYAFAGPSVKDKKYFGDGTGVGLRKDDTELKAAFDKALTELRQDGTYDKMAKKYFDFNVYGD
Protocol: as §2

LAO Q122A = biological target: T7, LAO Q122A (Salmonella typhimurium, UniProt P02911, Q144A); assay: LAO Q122A ligand binding, ITC; set-up: species or system Salmonella enterica; conditions: ITC, 20 °C
T7 construct: The mature LAO expression plasmid, LAO-Q122A, OccJ-S91G and OccJ-N202D were chemically synthesized; pET-28a); host or cells: E. coli BL21
T7 sequence (P02911 23-260 Q144A): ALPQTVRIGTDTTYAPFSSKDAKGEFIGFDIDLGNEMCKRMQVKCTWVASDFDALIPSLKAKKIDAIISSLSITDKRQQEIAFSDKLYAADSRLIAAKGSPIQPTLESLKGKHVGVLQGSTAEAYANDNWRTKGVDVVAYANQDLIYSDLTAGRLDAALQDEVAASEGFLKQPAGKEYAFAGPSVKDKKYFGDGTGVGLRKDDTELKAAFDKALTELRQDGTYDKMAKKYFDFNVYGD
Protocol: as §2

NocT WT [13] = biological target: T4, NocT WT; conditions: ITC; octopine; ref [6],[14]; read-out: K D (ITC) (converted); cited from earlier work
LAO = biological target: LAO; set-up: method as in PMID 1400387; conditions: ref [20]; cited from earlier work
[14] = intrinsic protein fluorescence titration, 20 °C, 50 mM Tris-HCl pH 8.0, 150 mM NaCl, 1 µM protein, read-out: K D (F)
[15] = fluorescence titration, read-out: apparent dissociation constant K D

Compound: NC(N)=NCCC[C@H](N[C@H](CCC(=O)O)C(=O)O)C(=O)O [nopaline]
- K D (F) (OccJ WT [1]; intrinsic protein fluorescence titration, 20 °C, 50 mM Tris-HCl pH 8.0, 150 mM NaCl, 1 µM protein): No fluorescence intensity change was detected; also recorded: no interaction
- K D (F) (OccJ S91G [2]; 20 °C, pH 8.0): not a ligand
- K D (F) (NocT G97S [3]): abolished the nopaline binding ability
- Kd (NocT WT [4]): 3.7 ± 0.6 µM

Compound: NC(N)=NCCC[C@H](NCC(=O)O)C(=O)O [noroctopine]
- Kd (OccJ WT [1]; [14]): 0.19 ± 0.05 µM
- fold better affinity of OccJ compared with arginine or ornithine alone (OccJ WT [1]; opine analogue versus its amino acid): 10 fold
- Enthalpy (ΔH) (OccJ WT [5]): -4.804 kcal/mol
- Entropic contribution (-TΔS) (OccJ WT [5]): -4.367 kcal/mol
- Entropy (ΔS) (OccJ WT [5]): 14.8 cal/mol/deg
- Free enthalpy (ΔG) (OccJ WT [5]): -9.171 kcal/mol
- Kd (OccJ WT [5]): 0.15 ± 0.01 µM
- Kd (NocT WT [6]): 33.4 ± 2.7 µM
- Enthalpy (ΔH) (NocT WT [7]): 0.872 kcal/mol
- Entropic contribution (-TΔS) (NocT WT [7]): -6.39 kcal/mol
- Entropy (ΔS) (NocT WT [7]): 21.8 cal/mol/deg
- Free enthalpy (ΔG) (NocT WT [7]): -5.518 kcal/mol
- Kd (NocT WT [7]): 78 ± 9 µM

Compound: NCCC[C@H](NCC(=O)O)C(=O)O [noroctopinic acid]
- Enthalpy (ΔH) (OccJ WT [5]): -7.202 kcal/mol
- Entropic contribution (-TΔS) (OccJ WT [5]): -1.934 kcal/mol
- Entropy (ΔS) (OccJ WT [5]): 6.60 cal/mol/deg
- Free enthalpy (ΔG) (OccJ WT [5]): -9.136 kcal/mol
- Kd (OccJ WT [5]): 0.15 ± 0.01 µM
- Kd (NocT WT [6]): 19.3 ± 1.37 µM
- Enthalpy (ΔH) (NocT WT [7]): 0.62 kcal/mol
- Entropic contribution (-TΔS) (NocT WT [7]): -6.83 kcal/mol
- Entropy (ΔS) (NocT WT [7]): 23.3 cal/mol/deg
- Free enthalpy (ΔG) (NocT WT [7]): -6.21 kcal/mol
- Kd (NocT WT [7]): 23 ± 5 µM

Compound: C[C@@H](N[C@@H](CCCN=C(N)N)C(=O)O)C(=O)O [octopine]
- Kd (OccJ WT [1]; [15]): 0.004 ± 0.001 µM
- Kd (OccJ WT [1]; [14]): 0.004 ± 0.0001 µM
- Enthalpy (ΔH) (OccJ WT [5]): -4.837 kcal/mol
- Entropic contribution (-TΔS) (OccJ WT [5]): -5.98 kcal/mol
- Entropy (ΔS) (OccJ WT [5]): 20.4 cal/mol/deg
- Free enthalpy (ΔG) (OccJ WT [5]): -10.817 kcal/mol
- Kd (OccJ WT [5]): 0.009 µM
- fold lower affinity of OccJ-S91G than OccJ (OccJ S91G [2]): over 7,000 fold
- Kd (OccJ S91G [2]; 20 °C, pH 8.0, read-out: K D (F)): 29.9 ± 3.8 µM
- Enthalpy (ΔH) (OccJ N202D [8]): -4.12 kcal/mol
- Entropic contribution (-TΔS) (OccJ N202D [8]): -6.345 kcal/mol
- Entropy (ΔS) (OccJ N202D [8]): 21.5 cal/mol/deg
- Free enthalpy (ΔG) (OccJ N202D [8]): -10.465 kcal/mol
- Kd (OccJ N202D [8]): 0.016 µM
- Enthalpy (ΔH) (OccJ S91G [9]): -0.726 kcal/mol
- Entropic contribution (-TΔS) (OccJ S91G [9]): -5.569 kcal/mol
- Entropy (ΔS) (OccJ S91G [9]): 19 cal/mol/deg
- Free enthalpy (ΔG) (OccJ S91G [9]): -6.295 kcal/mol
- Kd (OccJ S91G [9]): 20 µM
- Kd (OccJ N202D [10]): 0.006 ± 0.001 µM
- Kd (NocT G97S [3]; read-out: K D (F)): 63.8 ± 13.8 µM
- fold lower affinity of NocT G97S compared with the WT (NocT G97S [11]): 10 fold
- Enthalpy (ΔH) (NocT G97S [12]): 0.687 kcal/mol
- Entropic contribution (-TΔS) (NocT G97S [12]): -6.42 kcal/mol
- Entropy (ΔS) (NocT G97S [12]): 21.9 cal/mol/deg
- Free enthalpy (ΔG) (NocT G97S [12]): -5.733 kcal/mol
- Kd (NocT G97S [12]): 52 µM
- K D (ITC) (LAO WT): No interaction; also recorded: cannot bind
- Enthalpy (ΔH) (LAO Q122A): -3.318 kcal/mol
- Entropic contribution (-TΔS) (LAO Q122A): -2.673 kcal/mol
- Entropy (ΔS) (LAO Q122A): 9.12 cal/mol/deg
- Free enthalpy (ΔG) (LAO Q122A): -5.991 kcal/mol
- Kd (LAO Q122A; read-out: K D (ITC)): 34 ± 5 µM
- Kd (NocT WT [4]): 6.1 ± 0.7 µM
- Kd (NocT WT [13]): 9.9 µM

Compound: C[C@@H](N[C@@H](CCCN)C(=O)O)C(=O)O [octopinic acid]
- Kd (OccJ WT [1]; [15]): 0.017 ± 0.003 µM
- Kd (OccJ WT [1]; [14]): 0.017 ± 0.003 µM
- Enthalpy (ΔH) (OccJ WT [5]): -9.547 kcal/mol
- Entropic contribution (-TΔS) (OccJ WT [5]): -0.41 kcal/mol
- Entropy (ΔS) (OccJ WT [5]): 1.40 cal/mol/deg
- Free enthalpy (ΔG) (OccJ WT [5]): -9.957 kcal/mol
- Kd (OccJ WT [5]): 0.038 ± 0.007 µM
- Kd (NocT WT [6]): 1.8 ± 0.3 µM
- Enthalpy (ΔH) (NocT WT [7]): -3.658 kcal/mol
- Entropic contribution (-TΔS) (NocT WT [7]): -3.517 kcal/mol
- Entropy (ΔS) (NocT WT [7]): 12.0 cal/mol/deg
- Free enthalpy (ΔG) (NocT WT [7]): -7.175 kcal/mol
- Kd (NocT WT [7]): 4.4 ± 0.4 µM

Compound: NCCC[C@H](N)C(=O)O [ornithine]
- Kd (OccJ WT [1]): 31.2 ± 3.5 µM
- Enthalpy (ΔH) (OccJ WT [5]): -1.102 kcal/mol
- Entropic contribution (-TΔS) (OccJ WT [5]): -4.778 kcal/mol
- Entropy (ΔS) (OccJ WT [5]): 16.3 cal/mol/deg
- Free enthalpy (ΔG) (OccJ WT [5]): -5.88 kcal/mol
- Kd (OccJ WT [5]): 40.5 µM
- K D (F) (OccJ S91G [2]; 20 °C, pH 8.0): can no longer bind
- previous reported affinity (LAO): nanomolar range

Compound: homo-octopine
- Enthalpy (ΔH) (OccJ WT [5]): -7.611 kcal/mol
- Entropic contribution (-TΔS) (OccJ WT [5]): -0.806 kcal/mol
- Entropy (ΔS) (OccJ WT [5]): 2.75 cal/mol/deg
- Free enthalpy (ΔG) (OccJ WT [5]): -8.417 kcal/mol
- Enthalpy (ΔH) (NocT WT [7]): -3.832 kcal/mol
- Entropic contribution (-TΔS) (NocT WT [7]): -2.222 kcal/mol
- Entropy (ΔS) (NocT WT [7]): 7.58 cal/mol/deg
- Free enthalpy (ΔG) (NocT WT [7]): -6.054 kcal/mol
